Reference: patent US20150087662A1, “CYCLOBUTANE AND METHYLCYCLOBUTANE DERIVATIVES AS JANUS KINASE INHIBITORS” (Incyte Corporation, priority 2010, published 2015)
Structures can show the parent of a compound that is named as a salt.

Columns and labels:
[1] = target: T1, human JAK1 (a.a. 837-1142) (Homo sapiens, UniProt P23458); test: In vitro JAK kinase assay (HTRF), JAK1; type: biochemical; details: catalytic domain, ATP 90 μM, 500 nM peptide, room temperature 1 hr
T1 construct: human JAK1 (a.a. 837-1142); His tag (N); made in house; host or cells: insect cells (baculovirus)
Protocol: (§1) Compounds herein were tested for inhibitory activity of JAK targets according to the following in vitro assay described in Park et al., Analytical Biochemistry 1999, 269, 94-104. The catalytic domains of human JAK1 (a.a. 837-1142), JAK2 (a.a. 828-1132) and JAK3 (a.a. 781-1124) with an N-terminal His tag were expressed using baculovirus in insect cells and purified. The catalytic activity of JAK1, JAK2 or JAK3 was assayed by measuring the phosphorylation of a biotinylated peptide. The phosphorylated peptide was detected by homogenous time resolved fluorescence (HTRF). IC50s of compounds were measured for each kinase in the reactions that contain the enzyme, ATP and 500 nM peptide in 50 mM Tris (pH 7.8) buffer with 100 mM NaCl, 5 mM DTT, and 0.1 mg/mL (0.01%) BSA. The ATP concentration in the reactions was 90 μM for JAK1, 30 μM for JAK2 and 3 μM for JAK3. Reactions were carried out at room temperature for 1 hr and then stopped with 20 μL 45 mM EDTA, 300 nM SA-APC, 6 nM Eu-Py20 in assay buffer (Perkin Elmer, Boston, Mass.). Binding to the Europium labeled antibody took place for 40 minutes and HTRF signal was measured on a Fusion plate reader (Perkin Elmer, Boston, Mass.).

JAK2 (a.a. 828-1132) = target: T2, JAK2 (a.a. 828-1132) (Homo sapiens, UniProt O60674); test: In vitro JAK kinase assay (HTRF), JAK2; type: biochemical; details: catalytic domain, ATP 30 μM, 500 nM peptide, room temperature 1 hr
T2 construct: JAK2 (a.a. 828-1132); His tag (N); made in house; host or cells: insect cells (baculovirus)
Protocol: as §1

T1 sequence (P23458 849-1154): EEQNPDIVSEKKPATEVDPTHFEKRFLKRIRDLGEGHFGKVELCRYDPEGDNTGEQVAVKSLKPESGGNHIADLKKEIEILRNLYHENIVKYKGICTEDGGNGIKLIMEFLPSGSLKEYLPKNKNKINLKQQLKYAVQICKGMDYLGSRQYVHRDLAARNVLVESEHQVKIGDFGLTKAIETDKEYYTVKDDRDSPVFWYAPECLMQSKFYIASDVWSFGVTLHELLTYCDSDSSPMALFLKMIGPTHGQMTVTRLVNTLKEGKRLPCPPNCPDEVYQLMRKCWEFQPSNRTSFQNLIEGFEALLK
T2 sequence (O60674 828-1132): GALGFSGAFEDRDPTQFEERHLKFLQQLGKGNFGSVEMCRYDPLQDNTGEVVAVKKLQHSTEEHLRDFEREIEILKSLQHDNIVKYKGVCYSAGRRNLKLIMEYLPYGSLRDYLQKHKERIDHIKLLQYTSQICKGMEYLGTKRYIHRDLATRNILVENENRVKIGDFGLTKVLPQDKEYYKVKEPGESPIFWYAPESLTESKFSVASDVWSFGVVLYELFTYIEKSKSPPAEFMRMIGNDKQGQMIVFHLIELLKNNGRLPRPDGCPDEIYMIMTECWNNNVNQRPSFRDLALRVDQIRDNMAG

IC50 [1] [nM] | IC50 (JAK2 (a.a. 828-1132)) [nM] | Structure (SMILES)
< 2 | < 1 | N#CCC(C1CCC1)n1cc(-c2ncnc3[nH]ccc23)cn1 (single isomer, unassigned) [Example 1, (R or S)-3-Cyclobutyl-3-[4-(7H-pyrrolo[2,3-d]pyrimidin-4-yl)-1H-pyrazol-1-yl]propanenitrile]
< 2 | < 1 | C[C@H]1C[C@H](C(CC#N)n2cc(-c3ncnc4[nH]ccc34)cn2)C1 (single isomer, unassigned) [Example 2, (3R or 3S)-3-(4-(7H-Pyrrolo[2,3-d]pyrimidin-4-yl)-1H-pyrazol-1-yl)-3-((trans)-3-methylcyclobutyl)propanenitrile phosphoric acid salt]
< 2 | < 1 | C[C@H]1C[C@@H](C(CC#N)n2cc(-c3ncnc4[nH]ccc34)cn2)C1 (single isomer, unassigned) [Example 3, (3R or 3S)-3-(4-(7H-Pyrrolo[2,3-d]pyrimidin-4-yl)-1H-pyrazol-1-yl)-3-((cis)-3-methylcyclobutyl)-propanenitrile phosphoric acid salt]
